Results as given in ChEMBL document CHEMBL1126497, “A new type of cytotoxic annonaceous acetogenin: Giganin from goniothalamus giganteus” (1993).
≈ marks a conversion by molar mass, not a printed value.

Columns and labels:
Assay type in all cases: functional
A549 = assay: The compound was tested for cytotoxicity against A-549 cell in human lung carcinoma; conditions: read-out: ED50 (the source's name)
[1] = The compound was tested for cytotoxicity against BST cell in brine shrimp; conditions: Artemia
HT-29 = assay: The compound was tested for cytotoxicity against […] in human colon adenocarcinoma; conditions: read-out: ED50 (the source's name)
MCF7 = assay: The compound was tested for cytotoxicity against MCF-7 cell in human breast carcinoma; conditions: read-out: ED50 (the source's name)

Q: For CCCCCCCCCCCCCCC(O)C(O)CC/C=C\CCC(O)CCCCCC(O)CC1=CC(C)OC1=O (centres undefined), which EC50 (A549) is on record?
A: 0.0188 µg/mL (≈ 0.0324 µM)

Q: What about the LC50 [1] of the same compound?
A: 890 µg/mL (≈ 1530 µM)

Q: And the EC50 (HT-29)?
A: 0.00688 µg/mL (≈ 0.0118 µM)

Q: And the EC50 (MCF7)?
A: 1.03 µg/mL (≈ 1.77 µM)
